Experiments:
[1] = biological target: T1, estrogen receptor (Rattus norvegicus, UniProt P06211); details: cited from earlier work
T1 construct: ovariectomized rat uterine cytosolic estrogen receptor preparation; from tissue; host or cells: uterine cytosol of ovariectomized Sprague-Dawley rats (immature rats from Sasco are named as uterus source, mature ovariectomized rats)
T1 sequence (P06211 1-600): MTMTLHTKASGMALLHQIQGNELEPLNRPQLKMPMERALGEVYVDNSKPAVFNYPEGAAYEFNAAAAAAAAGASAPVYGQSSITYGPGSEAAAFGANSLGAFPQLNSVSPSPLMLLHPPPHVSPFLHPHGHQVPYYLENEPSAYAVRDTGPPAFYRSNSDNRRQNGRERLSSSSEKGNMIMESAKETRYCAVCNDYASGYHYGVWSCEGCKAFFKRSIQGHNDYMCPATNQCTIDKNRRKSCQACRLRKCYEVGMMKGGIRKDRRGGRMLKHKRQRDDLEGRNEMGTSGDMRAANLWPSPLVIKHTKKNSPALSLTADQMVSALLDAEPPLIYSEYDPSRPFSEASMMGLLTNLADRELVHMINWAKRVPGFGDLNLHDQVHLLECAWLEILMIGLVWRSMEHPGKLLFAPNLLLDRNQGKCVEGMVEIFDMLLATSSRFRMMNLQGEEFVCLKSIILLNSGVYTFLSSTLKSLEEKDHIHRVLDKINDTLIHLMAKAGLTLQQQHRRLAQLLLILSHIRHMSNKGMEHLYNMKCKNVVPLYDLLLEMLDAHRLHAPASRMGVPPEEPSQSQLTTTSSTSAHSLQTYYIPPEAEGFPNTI

[2] = test system: Immature Swiss-Webster female mice (estradiol-stimulated uterine weight); assay: Antiuterotrophic assay for antiestrogenic activity in immature mice; assay type: in vivo, mouse (Swiss-Webster); details: 0.4, 0.8, and 1.6 mg; three-day assay; estradiol 0.03 μg
Source text: The biological evaluation of the test compounds consisted of the in vitro rat cytosolic estradiol receptor binding assay, the in vivo immature mouse uterotrophic (estrogenic) and antiuterotrophic (antiestrogenic) assays, and the in vitro suppression of the proliferation of the ER positive MCF-7 human breast cancer cell line.
Vital-free immature female Swiss-Webster mice were obtained at 17-19 days of age from Sasco weighing 8-10 g, and were used in the uterotrophic and antiuterotrophic assays. Immature female Sprague-Dawley rats, obtained at 17-19 days of age from Sasco, weighing 28-33 g, were used as sources of uteri for the estradiol receptor binding assay. Animals were housed in wire topped polycarbonate cages at six animals per cage, with the environment controlled at 25° C. and a 12 h light/dark cycle. […]
The antiestrogenic assay was conducted as described for the estrogenic assay, except that each mouse in the cyclopropyl treatment groups received a standard stimulating dose of estradiol (0.03 μg) in sesame oil (0.1 mL) and the test compounds or MER 25 were administered in isopropyl myristate (0.05 mL) in a dosage range of 0.4, 0.8 and 1.6 mg (total dose). […] Antiestrogenic activity was measured as a decrease in the estradiol-stimulated […] response in groups that received both the test compound and estradiol as compared to the group treated only with estradiol.

Q: With `CCN(CC)CCOc1ccc(C(O)(Cc2ccc(OC)cc2)c2ccccc2)cc1` (stereo not drawn) [MER-25] as the compound, how does the “RBA (relative binding affinity)” value ([1]; relative to estradiol = 100%, footnote e, Day et al. (1991)) read?
A: --^e (Less than 0.01%.)

Q: What about the “[3H]-estradiol displacement curve (in words)” value ([1]; standards, Day et al., 1991) of the same compound?
A: very weak dose-related displacement

Q: What about the “antiestrogenic activity: effect on estradiol-induced uterine weight gain (in words)” value [2] of the same compound?
A: significant reduction in estradiol-induced uterotrophic activity
